{"source": "patent US9925202B2", "about": "“Treatment of lymphangioleiomyomatosis” (THE BRIGHAM AND WOMEN'S HOSPITAL, INC., priority 2013, dated 2018)", "key": {"TSC2-deficient cells": {"system": "TSC2-deficient cells", "assay": "COX-2 activation and prostaglandin production in TSC2-deficient cells with Torin 1", "type": "cell-based", "conditions": "specifically to TSC2-deficient cells"}, "[1]": {"system": "LAM patient-derived TSC2-deficient 621-101 cells", "assay": "COX, phospho-protein and secreted prostaglandin levels in 621-101 cells (immunoblot, enzyme immunoassay)", "type": "cell-based, human", "conditions": "24 hr; for COX-1 levels / COX-2 levels / phosphorylation of MAPK or S6: 50 μM NS398 or 450 μM aspirin, immunoblot", "description": "(§1) Cell culture and reagents. ELT-3 cells (Eker rat uterine leiomyoma-derived) (22,23) and LAM patient-derived 621-101 cells were cultured in IIA complete medium. HeLa, U2OS and OVARC5 cells were cultured in DMEM supplemented with 10% FBS. 17-beta-estradiol (10 nM), rapamycin (20 nM, Biomols), NS398 (50 μM), aspirin (450 μM Sigma), and 15-epi-LXA4 (100 nM) were used as indicated.\n(§2) Immunoblotting and antibodies. Cells were lysed in m-PER buffer (PIERCE). Antibodies were used: COX-1, COX-2, phospho-MAPK (T202/Y204), phospho-S6 (S235/236), Cleaved caspase 3, cleaved PARP (CELL SIGNALING), tuberin and c-Myc (SANTA CRUZ), smooth muscle actin (BIOGENEX), and beta-actin (SIGMA).\n(§3) Quantification of prostaglandin levels. PGE2, 6-keto-PGF1α and creatinine were measured using enzyme immunoassay kits (Cayman Chemical). Levels of secreted prostaglandins were normalized to protein concentrations and expressed as pg/mg protein. Urinary levels of prostaglandins were normalized to creatinine levels and expressed as […]."}, "[2]": {"system": "A549 cells (Human lung adenocarcinoma)", "conditions": "reference 18; cited from earlier work"}, "[3]": {"system": "LAM patient-derived 621-101 cells", "assay": "Proliferation of 621-101 cells", "type": "cell-based, human", "description": "as §1"}, "[4]": {"system": "xenograft tumors of TSC2-deficient ELT3-luciferase-expressing cells", "assay": "Aspirin in xenograft tumor model of ELT3-luciferase-expressing cells", "type": "in vivo, mice", "description": "Animal studies. All animal work was performed in accordance with protocols approved by the IACUC-BWH. Female intact CB17-SCID mice were used as described previously (8, 24, 25). Aspirin (100 mg/kg/day, in drinking water) treatment was initiated five weeks post-cell inoculation. Urine specimens were collected.\nas §2, §3\nStatistical analyses. Statistical analyses were performed using Student's t-test when comparing two groups for in vitro and in vivo studies. Two-Way ANOVO test was performed in xenograft tumor-aspirin studies. Mann Whitney tests were used for prostaglandin quantification in clinical data.\nTo determine whether inhibition of COX-1 and/or COX-2 impacts the growth of LAM patient-derived cells, 621-101 cells were treated with Sulindac (a COX-1 inhibitor), NS398 (a COX-2 inhibitor), or aspirin (an irreversible COX-1 and COX-2 inhibitor) for 24 hr. […] The inventors next assessed the possible benefit of aspirin in a xenograft tumor model of TSC2-deficient ELT3-luciferase-expressing cells. Aspirin treatment for two-three weeks decreased the intensity of bioluminescence (FIG. 3c), reduced the growth of xenograft tumors by 35% (FIG. 3d), and decreased the tumor size (FIG. 3e). Tumors also had reduced expression of COX-2 and c-Myc, and increased levels of cleaved-caspase-3 and cleaved-PARP (Data not shown)."}, "[5]": {"system": "tumors of TSC2-deficient LAM patient-derived cells", "assay": "Metastatic tumor model of LAM derived cells", "type": "in vivo, mice", "conditions": "aspirin treatment", "description": "Arrows indicate individual tumors.\nBioluminescent imaging was performed weekly. Tumor area was normalized to the baseline before drug administration.\nFIGS. 3f and 3g show the urinary PGE2 that was quantified from mice treated with aspirin or vehicle for 7 and 30 days. *p<0.05."}, "LAM patients": {"system": "LAM patients", "assay": "Exhaled breath condensate and lung function in LAM patients on aspirin", "type": "in vivo, human", "description": "To examine the functional effect of COX-2 in LAM lungs, 15-epi-lipoxin A4 (LXA4), a product of aspirin-acetylated COX-2, was measured in exhaled breath condensate (EBC) from three LAM subjects (data not shown). 15-epi-LXA4 was detected in EBC and the levels were increased with aspirin (data not shown)."}, "[6]": {"conditions": "aspirin 100 mg/kg/day in drinking water, two-three weeks"}, "[7]": {"conditions": "aspirin-treated mice, data not shown"}, "[8]": {"conditions": "LAM patients, aspirin treatment"}}, "data": [{"smiles": "CCC(=O)N1CCN(c2ccc(-n3c(=O)ccc4cnc5ccc(-c6cnc7ccccc7c6)cc5c43)cc2C(F)(F)F)CC1", "note": "[Torin 1]", "values": [{"measurement": "COX-2 activation and prostaglandin production", "setting": "TSC2-deficient cells", "result": "suppresses"}]}, {"smiles": "CS(=O)(=O)Nc1ccc([N+](=O)[O-])cc1OC1CCCCC1", "note": "[NS398]", "values": [{"measurement": "COX-1 levels", "setting": "[1]", "result": "reduced"}, {"measurement": "COX-2 levels", "setting": "[1]", "result": "reduced"}, {"measurement": "phosphorylation of MAPK or S6", "setting": "[1]", "result": "without affecting"}]}, {"smiles": "CCCCC[C@@H](O)/C=C/C=C\\C=C\\C=C\\[C@@H](O)[C@@H](O)CCCC(=O)O", "note": "[15-epi-LXA4, 15-epi-lipoxin A4]", "values": [{"measurement": "proliferation of A549 cells", "setting": "[2]", "result": "decreases"}, {"measurement": "proliferation of LAM patient-derived 621-101 cells", "setting": "[3]; 15-epi-LXA4 100 nM, data not shown", "result": "suppressed"}]}, {"smiles": "CC(=O)Oc1ccccc1C(=O)O", "note": "[aspirin]", "values": [{"measurement": "intensity of bioluminescence", "setting": "[4]; [6]", "result": "decreased"}, {"measurement": "reduction of growth of xenograft tumors", "setting": "[4]; [6]", "result": 35, "unit": "%"}, {"measurement": "tumor size", "setting": "[4]; [6]", "result": "decreased"}, {"measurement": "urinary levels of PGE2 and 6-Keto-PGF1α", "setting": "[4]; aspirin-treated mice bearing ELT3 xenograft tumors, data not shown", "result": "markedly reduced"}, {"measurement": "apoptosis in xenograft tumors", "setting": "[4]; aspirin-treated mice compared to vehicle-treatment", "result": "higher levels"}, {"measurement": "expression of COX-2 and c-Myc in tumors", "setting": "[4]; [7]", "result": "reduced"}, {"measurement": "levels of cleaved-caspase-3 and cleaved-PARP in tumors", "setting": "[4]; [7]", "result": "increased"}, {"measurement": "growth of tumors of LAM derived cells", "setting": "[5]", "result": "decreased"}, {"measurement": "urinary prostaglandins", "setting": "[5]", "result": "reduction"}, {"measurement": "COX-1 levels", "setting": "[1]", "result": "reduced"}, {"measurement": "COX-2 levels", "setting": "[1]", "result": "reduced"}, {"measurement": "phosphorylation of MAPK or S6", "setting": "[1]", "result": "without affecting"}, {"measurement": "PGE2 levels", "setting": "[1]; aspirin 450 μM, conditioned media, ELISA", "result": "significantly decreased"}, {"measurement": "lung function", "setting": "LAM patients; [8]", "result": "improved"}, {"measurement": "prostaglandin levels in exhaled breath condensate", "setting": "LAM patients; [8]", "result": "reduced"}, {"measurement": "15-epi-LXA4 levels in exhaled breath condensate (EBC)", "setting": "LAM patients; three LAM subjects, oral aspirin ingestion, data not shown", "result": "increased"}, {"measurement": "proliferation of 621-101 cells", "setting": "[3]; aspirin 450 μM", "result": "reduced"}]}]}
